According to US8299056B2 (Signal Pharmaceuticals, LLC, priority 2008, dated 2012):
Where two headings read alike, the source gives them in different places.

Target: T1, Syk (Homo sapiens, UniProt P43405)
T1 construct: purchased Carna Biosciences
Experiment: Syk HTRF assay
Format: biochemical
Outline: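 HTRF kinase assay in HEPES pH 7.6 buffer with MgCl2, DTT and Triton X100; start mix of 87.5 μM ATP and 80 nM biotinylated peptide, 1 h at room temperature. EDTA stop, then Eu-anti-phosphotyrosine/streptavidin-DyLight 647 detection, read as 665/615 nm emission ratio.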

[1] = read-out: Activity Level (Syk HTRF assay IC50)
[2] = activity levels A-D, read-out: Activity Level (IC50 in the Syk HTRF assay)
[3] = IC50 activity level, read-out: Activity Level

Row | Compound | IC50 [1] [nM] | IC50 [2] [nM] | also measured
1 | CC(C)Nc1cccc2nc(Nc3ccc(C(F)(F)F)cc3)nn12 [Example 330, N^5-isopropyl-N^2-(4-(trifluoromethyl)phenyl)-[1,2,4]triazolo[1,5-a]pyridin-2,5-diamine] |  | 1000 to 10000 | 
2 | CC1(C)C(=O)Nc2cc(Nc3nc4cccc(N[C@@H]5CCCNC5)n4n3)ccc21 [compound 131, (R)-3,3-dimethyl-6-(5-(piperidin-3-ylamino)-[1,2,4]triazolo[1,5-a]pyridin-2-ylamino)indolin-2-one] | 0.005 to 250 |  | 
3 | c1cc(N[C@H]2CCCNC2)n2nc(Nc3ccc4nn[nH]c4c3)nc2c1 [Example 454, (S)-N^2-(1H-benzo[d][1,2,3]triazol-6-yl)-N^5-(piperidin-3-yl)-[1,2,4]triazolo[1,5-a]pyridine-2,5-diamine] |  |  | IC50 [3]: 0.005 to 250 nM
4 | COCc1n[nH]c2cc(Nc3nc4cccc(CC5CCOCC5)n4n3)ccc12 [Example 552, N-(3-(methoxymethyl)-1H-indazol-6-yl)-5-((tetrahydro-2H-pyran-4-yl)methyl)-[1,2,4]triazolo[1,5-a]pyridin-2-amine] |  |  | IC50 [3]: 0.005 to 250 nM
5 | CC1(C)C(=O)Nc2cc(Nc3nc4cccc(C(F)(F)C5CCOCC5)n4n3)ccc21 [Example 536, 6-(5-(difluoro(tetrahydro-2H-pyran-4-yl)methyl)-[1,2,4]triazolo[1,5-a]pyridin-2-ylamino)-3,3-dimethylindolin-2-one] |  |  | IC50 [3]: 0.005 to 250 nM
6 | CC(c1cccc2nc(Nc3ccc(C(F)(F)F)cc3)nn12)N1CCNC(=O)C1 (stereo not drawn) [Example 263, 4-(1-(2-(4-(trifluoromethyl)phenylamino)-[1,2,4]triazolo[1,5-a]pyridin-5-yl)ethyl)piperazin-2-one] |  | 0.005 to 250 | 
7 | O=C1c2cc(Nc3nc4cccc(N[C@H]5CC[C@@H](O)CC5)n4n3)ccc2CN1CCO [Example 206, cis-6-(5-(4-hydroxycyclohexylamino)-[1,2,4]triazolo[1,5-a]pyridin-2-ylamino)-2-(2-hydroxyethyl)isoindolin-1-one] |  | 1000 to 10000 | 
8 | Cc1noc2cc(Nc3nc4cccc(N[C@H]5CC[C@@H](O)CC5)n4n3)ccc12 [Example 543, cis-4-(2-(3-methylbenzo[d]isoxazol-6-ylamino)-[1,2,4]triazolo[1,5-a]pyridin-5-ylamino)cyclohexanol] |  |  | IC50 [3]: 0.005 to 250 nM
9 | Cc1nnc2cc(Nc3nc4cccc(N[C@H]5CC[C@@H](O)CC5)n4n3)ccn12 [Example 568, cis-4-(2-(3-methyl-[1,2,4]triazolo[4,3-a]pyridin-7-ylamino)-[1,2,4]triazolo[1,5-a]pyridin-5-ylamino)cyclohexanol] |  |  | IC50 [3]: 0.005 to 250 nM
10 | O[C@H]1CC[C@@H](Nc2cccc3nc(Nc4cccnc4F)nn23)CC1 [Example 322, cis-4-(2-(2-fluoropyridin-3-ylamino)-[1,2,4]triazolo[1,5-a]pyridin-5-ylamino)cyclohexanol] |  | 1000 to 10000 | 
11 | O[C@@H]1CCC[C@H](Nc2cccc3nc(Nc4ccc(C(F)(F)F)cc4)nn23)C1 (single isomer, unassigned; enantiomer 1) [Example 223, cis-3-(2-(4-(trifluoromethyl)phenylamino)-[1,2,4]triazolo[1,5-a]pyridin-5-ylamino)cyclohexanol (enantiomer 1)] |  | 1000 to 10000 | 
12 | CC1(C)C(=O)Nc2cc(Nc3nc4cccc(NC5CCOCC5)n4n3)ccc21 [Example 177, 3,3-dimethyl-6-(5-(tetrahydro-2H-pyran-4-ylamino)-[1,2,4]triazolo[1,5-a]pyridin-2-ylamino)indolin-2-one] | 0.005 to 250 |  | 
13 | c1ccc(Nc2nc3cccc(N[C@@H]4CCNC4)n3n2)cc1 [Example 474, (R)-N^2-phenyl-N^5-(pyrrolidin-3-yl)-[1,2,4]triazolo[1,5-a]pyridin-2,5-diamine] |  |  | IC50 [3]: 500 to 1000 nM
14 | O=C1CN(Cc2cccc3nc(Nc4ccc(C(F)(F)F)cc4)nn23)CN1 [Example 301, 1-((2-(4-(trifluoromethyl)phenylamino)-[1,2,4]triazolo[1,5-a]pyridin-5-yl)methyl)imidazolidin-4-one] |  | 1000 to 10000 | 
15 | O[C@H]1CCCN(c2cccc3nc(Nc4ccc(C(F)(F)F)cc4)nn23)C1 [Example 310, (S)-1-(2-(4-(trifluoromethyl)phenylamino)-[1,2,4]triazolo[1,5-a]pyridin-5-yl)piperidin-3-ol] |  | 250 to 500 | 
16 | Cc1nn(C)c2cc(Nc3nc4cccc(N[C@H]5CC[C@@H](O)CC5)n4n3)ccc12 [Example 218, cis-4-(2-(1,3-dimethyl-1H-indazol-6-ylamino)-[1,2,4]triazolo[1,5-a]pyridin-5-ylamino)cyclohexanol] |  | 0.005 to 250 | 
17 | CNC(=O)c1ccc(Nc2nc3cccc(OC4CCNCC4)n3n2)cc1 [Example 284, N-methyl-4-(5-(piperidin-4-yloxy)-[1,2,4]triazolo[1,5-a]pyridin-2-ylamino)benzamide] |  | 1000 to 10000 | 
18 | Cc1cc(Nc2nc3cccc(CC4CCOCC4)n3n2)cc2c1cnn2C [Example 147, N-(1,4-dimethyl-1H-indazol-6-yl)-5-((tetrahydro-2H-pyran-4-yl)methyl)-[1,2,4]triazolo[1,5-a]pyridin-2-amine] | 0.005 to 250 |  | 
19 | C1=C(c2cccc3nc(Nc4ccccc4)nn23)CCNC1 [Example 513, N-phenyl-5-(1,2,3,6-tetrahydropyridin-4-yl)-[1,2,4]triazolo[1,5-a]pyridin-2-amine] |  |  | IC50 [3]: 1000 to 10000 nM
20 | CC1(C)C(=O)Nc2cc(Nc3nc4cccc(OC5CCOC5)n4n3)ccc21 (stereo in doubt) [Example 134, (R)-3,3-dimethyl-6-(5-(tetrahydrofuran-3-yloxy)-[1,2,4]triazolo[1,5-a]pyridin-2-ylamino)indolin-2-one] | 0.005 to 250 |  | 
21 | FC(F)(F)c1ccc(Nc2nc3cccc(OC[C@@H]4CCCN4)n3n2)cc1 [Example 303, (S)-5-(pyrrolidin-2-ylmethoxy)-N-(4-(trifluoromethyl)phenyl)-[1,2,4]triazolo[1,5-a]pyridin-2-amine] |  | 1000 to 10000 | 
22 | NC(=O)c1ccc(Nc2nc3cccc(N[C@H]4CC[C@@H](O)CC4)n3n2)cc1 [Example 429, cis-4-(5-(4-hydroxycyclohexylamino)-[1,2,4]triazolo[1,5-a]pyridin-2-ylamino)benzamide] |  |  | IC50 [3]: 0.005 to 250 nM
23 | OC1CC[C@H](Nc2cccc3nc(Nc4ccc(C(F)(F)F)cc4)nn23)C1 (stereo in doubt) [Example 419, (1S,3S)-3-(2-(4-(trifluoromethyl)phenylamino)-[1,2,4]triazolo[1,5-a]pyridin-5-ylamino)cyclopentanol] |  |  | IC50 [3]: 250 to 500 nM
24 | Nc1n[nH]c2cc(Nc3nc4cccc(N[C@H]5CCCNC5)n4n3)ccc12 [Example 451, (S)-N^2-(3-amino-1H-indazol-6-yl)-N^5-(piperidin-3-yl)-[1,2,4]triazolo[1,5-a]pyridine-2,5-diamine] |  |  | IC50 [3]: 0.005 to 250 nM
25 | O[C@H]1CC[C@@H](Nc2cccc3nc(Nc4ccc(F)c(F)c4)nn23)CC1 [Example 311, cis-4-(2-(3,4-difluorophenylamino)-[1,2,4]triazolo[1,5-a]pyridin-5-ylamino)cyclohexanol] |  | 250 to 500 | 
26 | N[C@H]1CC[C@H](Nc2cccc3nc(Nc4ccccc4)nn23)CC1 (stereo in doubt) [Example 518, trans-N^5-(4-aminocyclohexyl)-N^2-phenyl-[1,2,4]triazolo[1,5-a]pyridine-2,5-diamine] |  |  | IC50 [3]: 500 to 1000 nM
27 | Cc1nn(C)c2cc(Nc3nc4cccc(N[C@H]5CC[C@@H](O)CC5)n4n3)cc(F)c12 [Example 149, cis-4-(2-(4-fluoro-1,3-dimethyl-1H-indazol-6-ylamino)-[1,2,4]triazolo[1,5-a]pyridin-5-ylamino)cyclohexanol] | 0.005 to 250 |  | 
28 | COCCN1Cc2cc(Nc3nc4cccc(N[C@H]5CC[C@@H](O)CC5)n4n3)ccc2C1=O [Example 174, cis-5-(5-(4-hydroxycyclohexylamino)-[1,2,4]triazolo[1,5-a]pyridin-2-ylamino)-2-(2-methoxyethyl)isoindolin-1-one] | 0.005 to 250 |  | 
29 | Cc1n[nH]c2cc(Nc3nc4cccc(C[C@H]5CC[C@@H](O)CC5)n4n3)ccc12 [Example 239, cis-4-((2-(3-methyl-1H-indazol-6-ylamino)-[1,2,4]triazolo[1,5-a]pyridin-5-yl)methyl)cyclohexanol] |  | 0.005 to 250 | 

Second part, led by results:

Row | IC50 [1] [nM] | IC50 [2] [nM] | Compound | also measured
30 | 1000 to 10000 |  | CC(=O)Nc1cccc(-c2cccc3nc(Nc4ccccc4)nn23)c1 [compound 78, N-(3-(2-(phenylamino)-[1,2,4]triazolo[1,5-a]pyridin-5-yl)phenyl)acetamide] | 
31 | 0.005 to 250 |  | Cn1cnc2ccc(Nc3nc4cccc(-c5ccccc5)n4n3)cc21 [compound 47, N-(1-methyl-1H-benzo[d]imidazol-6-yl)-5-phenyl-[1,2,4]triazolo[1,5-a]pyridin-2-amine] | 
32 | 0.005 to 250 |  | NC(=O)c1ccc(Nc2nc3cccc(-c4cccc(O)c4)n3n2)cc1 [compound 64, 4-(5-(3-hydroxyphenyl)-[1,2,4]triazolo[1,5-a]pyridin-2-ylamino)benzamide] | 
33 | 250 to 500 |  | Nc1noc2cc(Nc3nc4cccc(-c5ccccc5)n4n3)ccc12 [compound 44] | 
34 |  | 250 to 500 | CNC(=O)c1ccc(Nc2nc3cccc(N4CCCC4)n3n2)cc1 [Example 251, N-methyl-4-(5-(pyrrolidin-1-yl)-[1,2,4]triazolo[1,5-a]pyridin-2-ylamino)benzamide] | 
35 | 0.005 to 250 |  | Oc1cccc(-c2cccc3nc(Nc4ccc(N5CCOCC5)cc4)nn23)c1 [compound 32, 3-(2-(4-morpholinophenylamino)-[1,2,4]triazolo[1,5-a]pyridin-5-yl)phenol] | 
36 | 1000 to 10000 |  | CNC(=O)c1ccc(Nc2nc3cccc(-c4ccc(C(=O)O)cc4)n3n2)cc1 [compound 29, 4-(2-(4-(methylcarbamoyl)phenylamino)-[1,2,4]triazolo[1,5-a]pyridin-5-yl)benzoic acid] | 
37 | 0.005 to 250 |  | Cn1nc(N)c2ccc(Nc3nc4cccc(-c5ccccc5)n4n3)cc21 [compound 35] | 
38 | 250 to 500 |  | Nc1ccc(-c2cccc3nc(Nc4ccccc4)nn23)cc1 [compound 82, 5-(4-aminophenyl)-N-phenyl-[1,2,4]triazolo[1,5-a]pyridin-2-amine] | 
39 | 1000 to 10000 |  | Oc1ccc(Nc2nc3cccc(-c4ccccc4)n3n2)cn1 [compound 70, 5-(5-phenyl-[1,2,4]triazolo[1,5-a]pyridin-2-ylamino)pyridine-2-ol] | 
